According to patent publication US12673041B2, “4-aminobut-2-enamide derivatives and salt thereof” (TAIHO PHARMACEUTICAL CO., LTD., priority 2019, dated 2026):

Experiments:
[1] = target: T1, GMPPNP-bound KRAS G12C protein and cRAF RAS-binding domain (cRAF-RBD) (Homo sapiens, UniProt P01116, G12C); assay: Inhibitory activity on interaction between KRAS G12C and cRAF (Alpha technology); format: biochemical; conditions: GMPPNP-bound KRAS G12C incubated with compound at 25° C. for 1 hour, then cRAF-RBD, Alpha signal; read-out: IC50
T1 construct: made in house; host or cells: E. coli
Procedure: Interaction between recombinant K-Ras4B G12C mutant protein (amino acids 1-169, SEQ ID NO:2) and cRAF RAS-binding domain (cRAF-RBD, amino acids 50-132, Jena Biosciences GmbH) was measured using Alpha technology (PerkinElmer Inc.).
Recombinant KRAS G12C protein with an N-terminal His-tag was expressed in E. coli and purified by affinity chromatography. To prepare GTP-bound form and GDP-bound form of KRAS G12C protein, 50 μM KRAS G12C protein was incubated with 1 mM GMPPNP (Guanosine-5′-[(β,γ)-imido]triphosphate, Tetralithium salt) (Jena Bioscience GmbH) and 1 mM GDP, respectively, in a loading buffer (20 mM Tris-HCl (pH 7.5), 50 mM NaCl, 1 mM DTT and 2.5 mM EDTA) for 1 hour on ice. After the incubation, MgCl2 was added to a final concentration of 10 mM, followed by incubation at room temperature for 30 minutes. The mixture was allowed to pass through a NAP-5 column to remove free nucleotides and purified, and the resultant nucleotide-bound KRAS G12C protein was used for compound evaluation.
For the measurement of the inhibitory activity of compounds on interaction between KRAS G12C and cRAF-RBD, GMPPNP-bound KRAS G12C protein was incubated with various concentrations of compound in a reaction buffer (20 mM Tris-HCl (pH 7.5), 100 mM NaCl, 1 mM MgCl2, 1 mM TCEP, 0.1% Tween 20) at 25° C. for 1 hour. After the incubation, recombinant cRAF-RBD and Alpha detection reagents were added and incubated at room temperature for 1.5 hours for binding. Interaction 5 of KRAS G12C and cRAF-RBD was monitored by measuring Alpha signal. Inhibition % was calculated using the signal from the reaction without test compound (DMSO control) as 0% inhibition and the signal from the reaction using GDP-bound KRAS G12C in place of GMPPNP-bound KRAS G12C as 100% inhibition. IC50 values were calculated from dose titration curve using curve fitting by XLfit software (IDBS).

[2] = target: Gppcp-bound recombinant K-Ras4B G12C mutant protein (amino acids 1-169, C51S/C80L/C118S) (Homo sapiens, UniProt P01116, C118S/C51S/C80L/G12C); assay: KRASG12C binding assay (LC-MS compound binding rate); conditions: test compound final concentration 0.5 μM, 25° C., 1 hour
Procedure: As test compounds for the KRASG12C binding assay, the compounds obtained in the “Preparation of Compounds” section were used. Sample solutions each containing a test compound were prepared in the form of a 10 mM DMSO solution.
Gppcp-bound recombinant K-Ras4B G12C mutant protein (amino acids 1-169, C51S/C80L/C118S, SEQ ID NO:1) was diluted with a buffer (1×TBS, 0.1 mM TCEP, 0.25 mM MgCl2, 50 μM Gppcp) to prepare a 50 nM protein solution. K-Ras4B is the major splicing variant of K-Ras. Amino acid sequence of residues 1 to 150 including the compounds' binding region of K-Ras4B is exactly same as that of K-Ras4A, the other splicing variant (Oncotarget. 2016 Jul. 19; 7(29): 46717-46733). A sample solution containing 10 mM test compound was diluted ten-fold with DMSO to make a 1 mM sample solution, and then diluted twenty-fold with DMSO to make a 50 μM sample solution. 1 μL of a 50 μM sample solution was added to 100 μL of a 50 nM protein solution to adjust the final concentration of a test compound to be 0.5 μM in the mixture. The mixtures were stored in an incubator at 25° C. for 1 hour, and 10 μL of a 1×TBS solution containing 2% formic acid was added to stop the reaction, followed by LC-MS measurement. LC-MS measurement was performed using Xevo G2-S Q-Tof manufactured by Waters, and reverse-phase chromatography was performed with a desalting column. A mass spectrum of positive ions was obtained by electrospray. For a mass spectrum, a spectrum of polyvalent ions was collectively converted to a molecular weight by using OpenLynx software by the MaxEnt technique, and a compound binding rate was calculated from the ratio of the signal intensity of a peak that corresponds to the molecular weight of the protein to the signal intensity of a peak that corresponds to the molecular weight of the protein conjugated with the compound.
The binding assay of the test compounds was conducted at a final concentration of 0.5 μM. A binding rate of 80% or more is rated “A”, a binding rate of 60% or more and less than 80% is rated “B”, a binding rate of 40% or more and less than 60% is rated “C”, a binding rate of 20% or more and less than 40% is rated “D”, and a binding rate of less than 20% is rated “E”. N.D.=not determined. Binding rate % is the ratio of KRAS signal intensity at the molecular weight of one molecule adduct to the sum of all the KRAS signal intensity (unbound form and adducts) in mass spectrum.
Thus, binding rate 100% means that only the one molecule adduct was observed without any unbound KRAS.

Row | SMILES | IC50 [1] | binding rate [2]
1 | CO[C@H]1CC[C@H](NC/C=C/C(=O)Nc2ccc(C(=O)c3ccc4c(-c5c(Cl)cc6c(ncn6C)c5Cl)cccn34)cc2C#N)CC1 (single isomer, unassigned) [Example 63, (E)-N-(2-cyano-4-(8-(4,6-dichloro-1-methyl-1H-benzo[d]imidazol-5-yl)indolizine-3-carbonyl)phenyl)-4-(((1r,4r)-4-methoxycyclohexyl)amino)but-2-enamide] | 0.21 µM | A (A binding rate of 80% or more is rated “A”)
2 | O=C(/C=C/CN[C@H]1CC[C@H](O)CC1)Nc1ccc(C(=O)Nc2cccc(Br)c2)cn1 [Comparative example 1, N-(3-bromophenyl)-6-((E)-4-(((1r,4r)-4-hydroxycyclohexyl)amino)but-2-enamido)nicotinamide, reference compound] | 20 µM | E (a binding rate of less than 20% is rated “E”)
3 | C=CC(=O)Nc1ccc(C(=O)Nc2cccc(-c3cc4nc(COC)n(C)c4cc3C(F)(F)F)c2)cc1C#N [Comparative example 2, reference compound] | 15 µM | E (a binding rate of less than 20% is rated “E”)
4 | CCc1nc2cc(-c3cccc(NC(=O)c4ccc(NC(=O)/C=C/CN(C)C(C)(C)C)c(C#N)c4)c3)c(C(F)(F)F)cc2n1C [Example 2, (E)-4-(4-(tert-butyl(methyl)amino)but-2-enamido)-3-cyano-N-(3-(2-ethyl-1-methyl-6-(trifluoromethyl)-1H-benzo[d]imidazol-5-yl)phenyl)benzamide] | 0.88 µM | D (a binding rate of 20% or more and less than 40% is rated “D”)
5 | CCc1nc2cc(-c3cccc4c3CCN4C(=O)c3ccc(NC(=O)/C=C/CN[C@H]4CC[C@H](OC)CC4)c(C#N)c3)c(C(F)(F)F)cc2n1C [Example 10, (E)-N-(2-cyano-4-(4-(2-ethyl-1-methyl-6-(trifluoromethyl)-1H-benzo[d]imidazol-5-yl)indoline-1-carbonyl)phenyl)-4-(((1r,4r)-4-methoxycyclohexyl)amino)but-2-enamide] | 0.19 µM | A (A binding rate of 80% or more is rated “A”)
6 | COc1ccc(Cl)c(-c2cccc(NC(=O)c3ccc(NC(=O)/C=C/CNC4CCN(S(C)(=O)=O)CC4)c(C#N)c3)c2)c1OC [Example 11, (E)-N-(6′-chloro-2′,3′-dimethoxy-[1,1′-biphenyl]-3-yl)-3-cyano-4-(4-((1-(methylsulfonyl)piperidin-4-yl)amino)but-2-enamido)benzamide] | 0.63 µM | B (a binding rate of 60% or more and less than 80% is rated “B”)
7 | CCN(CC)[C@H]1CC[C@H](NC/C=C/C(=O)Nc2ccc(C(=O)Nc3cccc(-c4c(Cl)ccc5c4cnn5C)c3)cc2C#N)CC1 [Example 12, N-(3-(5-chloro-1-methyl-1H-indazol-4-yl)phenyl)-3-cyano-4-((E)-4-(((1r,4r)-4-(diethylamino)cyclohexyl)amino)but-2-enamido)benzamide] | 0.27 µM | B (a binding rate of 60% or more and less than 80% is rated “B”)
8 | CCN(CC)[C@H]1CC[C@H](NC/C=C/C(=O)Nc2ccc(C(=O)Nc3cccc(-c4cc5nc(C)n(C)c5cc4Cl)c3)cc2F)CC1 [Example 13, N-(3-(6-chloro-1,2-dimethyl-1H-benzo[d]imidazol-5-yl)phenyl)-4-((E)-4-(((1r,4r)-4-(diethylamino)cyclohexyl)amino)but-2-enamido)-3-fluorobenzamide] | 0.41 µM | B (a binding rate of 60% or more and less than 80% is rated “B”)
9 | O=C(/C=C/CN[C@H]1CC[C@H](O)CC1)Nc1ccc(C(=O)Nc2cccc(-c3cc4nc[nH]c4cc3Cl)c2)cn1 [Example 14, N-(3-(6-chloro-1H-benzo[d]imidazol-5-yl)phenyl)-6-((E)-4-(((1r,4r)-4-hydroxycyclohexyl)amino)but-2-enamido)nicotinamide] | 0.83 µM | D (a binding rate of 20% or more and less than 40% is rated “D”)
10 | CCc1nc2c(Cl)c(-c3cccc(NC(=O)c4ccc(NC(=O)/C=C/CN[C@H]5CC[C@H](OC)CC5)c(C#N)c4)c3)c(C(F)(F)F)cc2n1C [Example 15, N-(3-(4-chloro-2-ethyl-1-methyl-6-(trifluoromethyl)-1H-benzo[d]imidazol-5-yl)phenyl)-3-cyano-4-((E)-4-(((1r,4r)-4-methoxycyclohexyl)amino)but-2-enamido)benzamide] | 0.2 µM | A (A binding rate of 80% or more is rated “A”)
11 | CO[C@H]1CC[C@H](NC/C=C/C(=O)Nc2ccc(C(=O)Nc3cccc(-c4cc5ncsc5cc4C)c3)cc2C#N)CC1 [Example 16, 3-cyano-4-((E)-4-(((1r,4r)-4-methoxycyclohexyl)amino)but-2-enamido)-N-(3-(6-methylbenzo[d]thiazol-5-yl)phenyl)benzamide] | 0.7 µM | C (a binding rate of 40% or more and less than 60% is rated “C”)
12 | CS(=O)(=O)N1CCC(NC/C=C/C(=O)Nc2ccc(C(=O)Nc3cccc(-c4cc5nccn5cc4Cl)c3)cc2C#N)CC1 [Example 17, (E)-N-(3-(6-chloroimidazo[1,2-a]pyridin-7-yl)phenyl)-3-cyano-4-(4-((1-(methylsulfonyl)piperidin-4-yl)amino)but-2-enamido)benzamide] | 0.075 µM | B (a binding rate of 60% or more and less than 80% is rated “B”)
13 | CO[C@H]1CC[C@H](NC/C=C/C(=O)Nc2ccc(C(=O)Nc3cc(F)c(F)c(-c4cc5ncn(C)c5cc4C)c3)cc2C#N)CC1 [Example 18, 3-cyano-N-(3-(1,6-dimethyl-1H-benzo[d]imidazol-5-yl)-4,5-difluorophenyl)-4-((E)-4-(((1r,4r)-4-methoxycyclohexyl)amino)but-2-enamido)benzamide] | 0.14 µM | A (A binding rate of 80% or more is rated “A”)
14 | CCN(CC)[C@H]1CC[C@H](NC/C=C/C(=O)Nc2ccc(C(=O)Nc3cccc(-c4cc5ncn(C)c5cc4Cl)c3)cc2C#N)CC1 [Example 19, N-(3-(6-chloro-1-methyl-1H-benzo[d]imidazol-5-yl)phenyl)-3-cyano-4-((E)-4-(((1r,4r)-4-(diethylamino)cyclohexyl)amino)but-2-enamido)benzamide] | 0.034 µM | A (A binding rate of 80% or more is rated “A”)
15 | Cc1nc2c(Cl)c(-c3cccc(NC(=O)c4ccc(NC(=O)/C=C/CNC5CCC(F)(F)CC5)c(C#N)c4)c3)c(Cl)cc2n1C [Example 20, (E)-3-cyano-N-(3-(4,6-dichloro-1,2-dimethyl-1H-benzo[d]imidazol-5-yl)phenyl)-4-(4-((4,4-difluorocyclohexyl)amino)but-2-enamido)benzamide] | 0.15 µM | A (A binding rate of 80% or more is rated “A”)
